In brackets after ≈: the same amount, converted by molar mass. Activity calls are given as the source filed them. No cut-off for these calls is given here.
Assays:
[1] = test system: Staphylococcus aureus; assay: Antibacterial activity against Staphylococcus aureus after 24 hr by agar streak dilution method; format: functional
[2] = test system: Salmonella typhi; assay: Antibacterial activity against Salmonella enterica subsp. enterica serovar Typhi after 24 hr by agar streak dilution method; format: functional
[3] = test system: Proteus vulgaris; assay: Antibacterial activity against Proteus vulgaris after 24 hr by agar streak dilution method; format: functional
[4] = test system: Klebsiella pneumoniae; assay: Antibacterial activity against Klebsiella pneumoniae after 24 hr by agar streak dilution method; format: functional
[5] = test system: Pseudomonas aeruginosa; assay: Antibacterial activity against Pseudomonas aeruginosa after 24 hr by agar streak dilution method; format: functional
[6] = test system: Shigella flexneri; assay: Antibacterial activity against Shigella flexneri after 24 hr by agar streak dilution method; format: functional
[7] = test system: Bacillus subtilis; assay: Antibacterial activity against Bacillus subtilis at 100 ug/disk after 24 hr by paper disk diffusion method; format: functional; conditions: read-out: IZ
[8] = test system: Aspergillus clavatus; assay: Antifungal activity against Aspergillus clavatus after 48 hr by agar streak dilution method; format: functional
[9] = test system: Bacillus subtilis; assay: Antibacterial activity against Bacillus subtilis after 24 hr by agar streak dilution method; format: functional
[10] = test system: Candida albicans; assay: Antifungal activity against Candida albicans after 48 hr by agar streak dilution method; format: functional
[11] = test system: Aspergillus fumigatus; assay: Antifungal activity against Aspergillus fumigatus at 100 ug/ml after 48 hr by agar streak dilution method; format: functional, organism-based
[12] = test system: Aspergillus niger; assay: Antifungal activity against Aspergillus niger at 100 ug/disk after 48 hr by paper disk diffusion method; format: functional; conditions: read-out: IZ
[13] = test system: Aspergillus niger; assay: Antifungal activity against Aspergillus niger after 48 hr by agar streak dilution method; format: functional
[14] = test system: Aspergillus clavatus; assay: Antifungal activity against Aspergillus clavatus at 100 ug/disc after 48 hr by paper disk diffusion method; format: functional; conditions: read-out: IZ
[15] = test system: Candida albicans; assay: Antifungal activity against Candida albicans at 100 ug/disk after 48 hr by paper disk diffusion method; format: functional; conditions: read-out: IZ
[16] = test system: Shigella flexneri; assay: Antibacterial activity against Shigella flexneri at 100 ug/disc after 24 hr by paper disk diffusion method; format: functional; conditions: read-out: IZ
[17] = test system: Salmonella typhi; assay: Antibacterial activity against Salmonella enterica subsp. enterica serovar Typhi at 100 ug/disk after 24 hr by paper disk diffusion method; format: functional; conditions: read-out: IZ
[18] = test system: Staphylococcus aureus; assay: Antibacterial activity against Staphylococcus aureus at 100 ug/disc after 24 hr by paper disk diffusion method; format: functional; conditions: read-out: IZ
[19] = test system: Klebsiella pneumoniae; assay: Antibacterial activity against Klebsiella pneumoniae at 100 ug/disk after 24 hr by paper disk diffusion method; format: functional; conditions: read-out: IZ
[20] = test system: Escherichia coli; assay: Antibacterial activity against Escherichia coli at 100 ug/disk after 24 hr by paper disk diffusion method; format: functional; conditions: read-out: IZ
[21] = test system: Proteus vulgaris; assay: Antibacterial activity against Proteus vulgaris at 100 ug/disk after 24 hr by paper disk diffusion method; format: functional; conditions: read-out: IZ
[22] = test system: Escherichia coli; assay: Antibacterial activity against Escherichia coli after 24 hr by agar streak dilution method; format: functional
[23] = test system: Pseudomonas aeruginosa; assay: Antibacterial activity against Pseudomonas aeruginosa at 100 ug/disk after 24 hr by paper disk diffusion method; format: functional; conditions: read-out: IZ
[24] = test system: Candida albicans; assay: Antifungal activity against Candida albicans at 100 ug/ml after 48 hr by agar streak dilution method; format: functional, organism-based
[25] = test system: Aspergillus fumigatus; assay: Antifungal activity against Aspergillus fumigatus at 100 ug/disc after 48 hr by paper disk diffusion method; format: functional; conditions: read-out: IZ
[26] = test system: Aspergillus fumigatus; assay: Antifungal activity against Aspergillus fumigatus after 48 hr by agar streak dilution method; format: functional

Row | SMILES | MIC [1] [µg/mL] | MIC [2] [µg/mL] | MIC [3] [µg/mL] | MIC [4] [µg/mL] | MIC [5] [µg/mL] | MIC [6] [µg/mL] | zone of inhibition at 100 µg/disc [7] [mm] | MIC [8] [µg/mL] | MIC [9] [µg/mL] | zone of inhibition at 100 µg/disc [12] [mm] | MIC [13] [µg/mL] | zone of inhibition at 100 µg/disc [14] [mm] | zone of inhibition at 100 µg/disc [16] [mm] | zone of inhibition at 100 µg/disc [17] [mm] | zone of inhibition at 100 µg/disc [18] [mm] | zone of inhibition at 100 µg/disc [19] [mm] | zone of inhibition at 100 µg/disc [20] [mm] | zone of inhibition at 100 µg/disc [21] [mm] | MIC [22] [µg/mL] | zone of inhibition at 100 µg/disc [23] [mm] | other results
1 | Cc1cc(=O)oc2cc(Oc3nc(Nc4ccc(N5C(=O)CSC5c5ccccc5)cc4)nc(N(C)C)n3)ccc12 (stereo not drawn) | 100 (≈ 176 µM) | 100 (≈ 176 µM) | 100 (≈ 176 µM) | 100 (≈ 176 µM) | 100 (≈ 176 µM) | 100 (≈ 176 µM) | 13 | 100 (≈ 176 µM) | 100 (≈ 176 µM) | 11 | 100 (≈ 176 µM) | 13 | 12 | 11 | 12 | < 10 | 14 | 10 | 100 (≈ 176 µM) | 15 | MIC [10]: 100 µg/mL (≈ 176 µM); Activity [11]: inactive; zone of inhibition at 100 µg/disc [15]: 10 mm
2 | Cc1cc(=O)oc2cc(Oc3nc(Nc4ccc(N5C(=O)CSC5c5ccccc5C(=O)O)cc4)nc(N(C)C)n3)ccc12 (stereo not drawn) | 100 (≈ 164 µM) | 100 (≈ 164 µM) | 100 (≈ 164 µM) | 100 (≈ 164 µM) | 100 (≈ 164 µM) | 100 (≈ 164 µM) | 14 | 100 (≈ 164 µM) | 100 (≈ 164 µM) | 12 | 100 (≈ 164 µM) | 13 | 14 | < 10 | 16 | 12 | < 10 | 11 | 100 (≈ 164 µM) | 14 | Activity [24]: inactive; zone of inhibition at 100 µg/disc [25]: 10 mm; MIC [26]: 100 µg/mL (≈ 164 µM)
3 | Cc1cc(=O)oc2cc(Oc3nc(Nc4ccc(/N=C/c5ccc(O)cc5)cc4)nc(N(C)C)n3)ccc12 | 25 (≈ 49.2 µM) | 50 (≈ 98.3 µM) | 50 (≈ 98.3 µM) | 100 (≈ 197 µM) | 50 (≈ 98.3 µM) | 100 (≈ 197 µM) | 18 | 100 (≈ 197 µM) | 50 (≈ 98.3 µM) | 20 | 50 (≈ 98.3 µM) | 14 | 17 | 19 | 20 | 11 | 20 | 19 | 25 (≈ 49.2 µM) | 18 | MIC [10]: 100 µg/mL (≈ 197 µM); zone of inhibition at 100 µg/disc [15]: 16 mm; zone of inhibition at 100 µg/disc [25]: 18 mm; MIC [26]: 50 µg/mL (≈ 98.3 µM)
4 | COc1ccc(/C=N/c2ccc(Nc3nc(Oc4ccc5c(C)cc(=O)oc5c4)nc(N(C)C)n3)cc2)cc1 | 100 (≈ 191 µM) | 50 (≈ 95.7 µM) | 50 (≈ 95.7 µM) | 100 (≈ 191 µM) | 100 (≈ 191 µM) | 100 (≈ 191 µM) | 13 | 100 (≈ 191 µM) | 100 (≈ 191 µM) | 16 | 50 (≈ 95.7 µM) | 11 | 10 | 18 | 15 | 14 | 10 | 16 | 100 (≈ 191 µM) | 12 | MIC [10]: 50 µg/mL (≈ 95.7 µM); zone of inhibition at 100 µg/disc [15]: 17 mm; zone of inhibition at 100 µg/disc [25]: 13 mm; MIC [26]: 100 µg/mL (≈ 191 µM)
5 | Cc1cc(=O)oc2cc(Oc3nc(Nc4ccc(N5C(=O)C(CN6CCN(c7ccccn7)CC6)SC5c5ccccc5)cc4)nc(N(C)C)n3)ccc12 (stereo not drawn) | 100 (≈ 135 µM) | 100 (≈ 135 µM) | 100 (≈ 135 µM) | 100 (≈ 135 µM) | 50 (≈ 67.4 µM) | 100 (≈ 135 µM) | 16 | 100 (≈ 135 µM) | 100 (≈ 135 µM) | 14 | 100 (≈ 135 µM) | 16 | 15 | 14 | 14 | 13 | 16 | 13 | 100 (≈ 135 µM) | 19 | MIC [10]: 100 µg/mL (≈ 135 µM); zone of inhibition at 100 µg/disc [15]: 12 mm; zone of inhibition at 100 µg/disc [25]: < 10 mm; MIC [26]: 100 µg/mL (≈ 135 µM)
6 | Cc1cc(=O)oc2cc(Oc3nc(Nc4ccc(N5C(=O)C(CN6CCN(c7ccccn7)CC6)SC5c5ccc(Cl)cc5Cl)cc4)nc(N(C)C)n3)ccc12 (stereo not drawn) | 25 (≈ 30.8 µM) | 50 (≈ 61.7 µM) | 12.5 (≈ 15.4 µM) | 25 (≈ 30.8 µM) | 50 (≈ 61.7 µM) | 25 (≈ 30.8 µM) | 23 | 25 (≈ 30.8 µM) | 12.5 (≈ 15.4 µM) | 18 | 50 (≈ 61.7 µM) | 23 | 20 | 18 | 22 | 21 | 19 | 21 | 25 (≈ 30.8 µM) | 18 | MIC [10]: 50 µg/mL (≈ 61.7 µM); zone of inhibition at 100 µg/disc [15]: 20 mm; zone of inhibition at 100 µg/disc [25]: 19 mm; MIC [26]: 50 µg/mL (≈ 61.7 µM)
7 | Cc1ccc(C2SCC(=O)N2c2ccc(Nc3nc(Oc4ccc5c(C)cc(=O)oc5c4)nc(N(C)C)n3)cc2)cc1 (stereo not drawn) | 50 (≈ 86.1 µM) | 25 (≈ 43.1 µM) | 100 (≈ 172 µM) | 100 (≈ 172 µM) | 50 (≈ 86.1 µM) | 25 (≈ 43.1 µM) | 19 | 50 (≈ 86.1 µM) | 25 (≈ 43.1 µM) | 20 | 25 (≈ 43.1 µM) | 19 | 20 | 19 | 18 | 15 | 13 | 14 | 100 (≈ 172 µM) | 20 | MIC [10]: 50 µg/mL (≈ 86.1 µM); zone of inhibition at 100 µg/disc [15]: 20 mm; zone of inhibition at 100 µg/disc [25]: 18 mm; MIC [26]: 50 µg/mL (≈ 86.1 µM)
8 | Cc1cc(=O)oc2cc(Oc3nc(Nc4ccc(/N=C/c5ccc(Cl)cc5Cl)cc4)nc(N(C)C)n3)ccc12 | 100 (≈ 178 µM) | 100 (≈ 178 µM) | 50 (≈ 89.1 µM) | 50 (≈ 89.1 µM) | 100 (≈ 178 µM) | 100 (≈ 178 µM) | 17 | 50 (≈ 89.1 µM) | 50 (≈ 89.1 µM) | 11 | 100 (≈ 178 µM) | 17 | 14 | 14 | 14 | 17 | 13 | 16 | 100 (≈ 178 µM) | 12 | MIC [10]: 100 µg/mL (≈ 178 µM); zone of inhibition at 100 µg/disc [15]: 12 mm; zone of inhibition at 100 µg/disc [25]: 13 mm; MIC [26]: 100 µg/mL (≈ 178 µM)
9 | Cc1cc(=O)oc2cc(Oc3nc(Nc4ccc(/N=C/c5ccc(O)cc5O)cc4)nc(N(C)C)n3)ccc12 | 12.5 (≈ 23.8 µM) | 50 (≈ 95.3 µM) | 50 (≈ 95.3 µM) | 50 (≈ 95.3 µM) | 50 (≈ 95.3 µM) | 100 (≈ 191 µM) | 18 | 100 (≈ 191 µM) | 25 (≈ 47.7 µM) | 14 | 100 (≈ 191 µM) | 15 | 18 | 18 | 20 | 19 | 18 | 17 | 25 (≈ 47.7 µM) | 17 | MIC [10]: 25 µg/mL (≈ 47.7 µM); zone of inhibition at 100 µg/disc [15]: 20 mm; zone of inhibition at 100 µg/disc [25]: 18 mm; MIC [26]: 25 µg/mL (≈ 47.7 µM)
10 | Cc1cc(=O)oc2cc(Oc3nc(Nc4ccc(/N=C/c5ccc(Cl)c(Cl)c5)cc4)nc(N(C)C)n3)ccc12 | 100 (≈ 178 µM) | 100 (≈ 178 µM) | 100 (≈ 178 µM) | 100 (≈ 178 µM) | 50 (≈ 89.1 µM) | 100 (≈ 178 µM) | 15 | 100 (≈ 178 µM) | 100 (≈ 178 µM) | < 10 | 100 (≈ 178 µM) | 15 | 15 | 14 | 13 | 12 | 11 | 12 | 100 (≈ 178 µM) | 16 | MIC [10]: 100 µg/mL (≈ 178 µM); zone of inhibition at 100 µg/disc [15]: 10 mm; zone of inhibition at 100 µg/disc [25]: 12 mm; MIC [26]: 100 µg/mL (≈ 178 µM)

Reference: ChEMBL document CHEMBL3046897, “Synthesis of 3-{4-[4-dimethylamino-6-(4-methyl-2-oxo-2H-chromen-7-yloxy)-[1,3,5]triazin-2-ylamino]-phenyl}-2-phenyl-5-(4-pyridin-2-yl-piperazin-1-ylmethyl)-thiazolidin-4-one and their biological evaluation” (2012)
